Tests used:
[1] = biological target: Caspase-8 (Homo sapiens, UniProt Q14790); assay: Caspase-8 enzyme assay, cleavage of fluorogenic substrate; format: biochemical; conditions: second order rate constant of enzyme inactivation; substrate Acetyl-Asp-Glu-val-Asp-amino-4-methylcoumarin
Text: (§1) The assays for caspase inhibition are based on the cleavage of a fluorogenic substrate by recombinant, purified human Caspases-1, -3, -7 or -8. The assays are run in essentially the same way as those reported by Garcia-Calvo et al. (J. Biol. Chem. 273 (1998), 32608-32613), using a substrate specific for each enzyme. The substrate for Caspase-1 is Acetyl-Tyr-Val-Ala-Asp-amino-4-methylcoumarin. The substrate for Caspases-3, -7 and -8 is Acetyl-Asp-Glu-val-Asp-amino-4-methylcoumarin.
(§2) The observed rate of enzyme inactivation at a particular inhibitor concentration, kobs, is computed by direct fits of the data to the equation derived by Thornberry et al. (Biochemistry 33 (1994), 3943-3939) using a nonlinear least-squares analysis computer program (PRISM 2.0; GraphPad software). To obtain the second order rate constant, kinact, kobs values are plotted against their respective inhibitor concentrations and kinact values are subsequently calculated by computerized linear regression.

[2] = biological target: T1, Caspase-3 (Homo sapiens, UniProt P42574); assay: Caspase-3 enzyme assay, cleavage of fluorogenic substrate; format: biochemical; conditions: second order rate constant of enzyme inactivation; substrate Acetyl-Asp-Glu-val-Asp-amino-4-methylcoumarin
T1 sequence (P42574 29-175 limits assumed): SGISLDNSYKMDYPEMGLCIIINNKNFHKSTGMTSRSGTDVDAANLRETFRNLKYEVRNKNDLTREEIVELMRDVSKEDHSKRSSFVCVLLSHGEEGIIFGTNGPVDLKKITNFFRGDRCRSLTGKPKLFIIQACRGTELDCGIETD
T1 sequence (P42574 176-277 limits assumed): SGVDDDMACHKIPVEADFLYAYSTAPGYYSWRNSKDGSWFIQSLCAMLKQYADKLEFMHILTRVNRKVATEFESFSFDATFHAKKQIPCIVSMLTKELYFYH
Text: as §1, §2

[3] = biological target: T2, Caspase-1 (Homo sapiens, UniProt P29466); assay: Caspase-1 enzyme assay, cleavage of fluorogenic substrate; format: biochemical; conditions: second order rate constant of enzyme inactivation; substrate Acetyl-Tyr-Val-Ala-Asp-amino-4-methylcoumarin
T2 sequence (P29466 120-297 limits assumed): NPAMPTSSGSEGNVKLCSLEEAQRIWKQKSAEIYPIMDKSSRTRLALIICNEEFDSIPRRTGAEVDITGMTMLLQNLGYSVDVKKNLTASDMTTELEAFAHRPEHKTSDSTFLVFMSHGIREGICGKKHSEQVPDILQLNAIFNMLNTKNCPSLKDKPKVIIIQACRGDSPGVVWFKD
T2 sequence (P29466 317-404 limits assumed): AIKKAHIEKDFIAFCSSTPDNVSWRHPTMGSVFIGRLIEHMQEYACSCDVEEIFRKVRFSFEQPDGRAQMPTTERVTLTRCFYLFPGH
Text: as §1, §2

[4] = tested on: Jurkat E6.1 cells; assay: Anti-Fas induced apoptosis assay; format: cell-based; conditions: Homo sapiens, anti-Fas antibody CH-11 10 ng/ml, 16-18 hrs, DNA fragmentation, OD405 nm
Text: Cellular apoptosis may be induced by the binding of Fas ligand (FasL) to its receptor, CD95 (Fas). CD95 is one of a family of related receptors, known as death receptors, which can trigger apoptosis in cells via activation of the caspase enzyme cascade. The process is initiated by the binding of the adapter molecule FADD/MORT-1 to the cytoplasmic domain of the CD-95 receptor-ligand complex. Caspase-8 then binds FADD and becomes activated, initiating a cascade of events that involve the activation of downstream caspases and subsequent cellular apoptosis. Apoptosis can also be induced in cells expressing CD95 eg the Jurkat E6.1 T cell lymphoma cell line, using an antibody, rather than FasL, to crosslink the cell surface CD95. Anti-Fas-induced apoptosis is also triggered via the activation of caspase-8. This provides the basis of a cell based assay to screen compounds for inhibition of the caspase-8-mediated apoptotic pathway.
Jurkat E6.1 cells are cultured in complete medium consisting of RPMI-1640 (Sigma No)+10% foetal calf serum (Gibco BRL No. 10099-141)+2 mM L-glutamine (Sigma No. G-7513). The cells are harvested in log phase of growth. 100 ml Cells at 5-8×10^5 cells/ml are transferred to sterile 50 ml Falcon centrifuge tubes and centrifuged for 5 minutes at 100×g at room temperature. The supernatant is removed and the combined cell pellets resuspended in 25 ml of complete medium. The cells are counted and the density adjusted to 2×10^6cells/ml with complete medium.
The test compound is dissolved in dimethyl sulphoxide (DMSO)(Sigma No. D-2650) to give a 100 mM stock solution. This is diluted to 400 μM in complete medium, then serially diluted in a 96-well plate prior to addition to the cell assay plate.
100 μl of the cell suspension ([…]) is added to each well of a sterile 96-well round-bottomed cluster plate (Costar No. 3790). 501l of compound solution at the appropriate dilution and 50 μl of anti-Fas antibody, clone CH-11 (Kamiya No.MC-060) at a final concentration of 10 ng/ml, are added to the wells. Control wells are set up minus antibody and minus compound but with a serial dilution of DMSO as vehicle control. The plates are incubated for 16-18 hrs at 37° C. in 5% CO2 and 95% humidity.
Apoptosis of the cells is measured by the quantitation of DNA fragmentation using a ‘Cell Death Detection Assay’ from Boehringer-Mannheim, No. 1544 675. After incubation for 16-18 hrs the assay plates are centrifuged at 100×g at room temperature for 5 minutes. 150 μl of the supernatant are removed and replaced by 150 μl of fresh complete medium. The cells are then harvested and 200 μl of the lysis buffer supplied in the assay kit are added to each well. The cells are triturated to ensure complete lysis and incubated for 30 minutes at 4° C. The plates are then centrifuged at 1900×g for 10 minutes and the supernatants diluted 1:20 in the incubation buffer provided. 100 μl of this solution is then assayed exactly according to the manufacturer's instructions supplied with the kit. OD405 nm is measured 20 minutes after addition of the final substrate in a SPECTRAmax Plus plate reader (Molecular Devices). OD405 nm is plotted versus compound concentration and the IC50 values for the compounds are calculated using the curve fitting program SOFTmax Pro (Molecular Devices) using the four parameter fit option.

[5] = tested on: IL-1β secretion from peripheral blood mononuclear cells (PBMC); assay: Inhibition of IL-1β secretion from mixed population of PBMC; format: cell-based; conditions: Homo sapiens, LPS 50 ng/ml, 16-18 h, mature IL-1β in supernatant
Procedure: Processing of pre-IL-1β by caspase-1 can be measured in cell culture using a variety of cell sources. Human PBMC obtained from healthy donors provides a mixed population of lymphocyte and mononuclear cells that produce a spectrum of interleukins and cytokines in response to many classes of physiological stimulators.
The test compound is dissolved in dimethyl sulfoxide (DMSO,Sigma #D-2650) to give a 100 mM stock solution. This is diluted in complete medium consisting of RPMI containing 10% heat inactivated FCS (Gibco BRL #10099-141), 2 mM L-Glutamine (Sigma, #G-7513), 100U penicillin and 100 μg/ml streptomycin (Sigma #P-7539). The final concentration range of test compound is from 100 μM down to 6 nM over eight dilution steps. The highest concentration of test compound is equivalent to 0.1% DMSO in the assay.
Human PBMC are isolated from Buffy Coats obtained from the blood bank using centrifugation on Ficoll-Paque leukocyte separation medium (Amersham, #17-1440-O2) and the cellular assay is performed in a sterile 96 well flat-bottomed plate (Nunc). Each well contains 100 μl of the cell suspension, 1×10^5 cells, 50 μl of compound dilutions and 50 μl of LPS (Sigma #L-3012) at 50 ng/ml final concentration. Controls consist of cells ± LPS stimulation and a serial dilution of DMSO diluted in the same way as compound. The plates are incubated for 16-18 h at 37° C. in 5% CO2 & 95% humidity atmosphere.
After 16-18 h the supernatants are harvested after centrifuging the plates at 100×g at 18° C. for 15 min and assayed for their IL-1β content. Measurement of mature IL-1β in the supernatant is performed using the Quantikine kits (R&D Systems) according to manufacturer's instructions. Mature IL-1β levels of about 600-1500 pg/ml are observed for PBMCs in positive control wells.
The inhibitory potency of the compounds can be represented by an IC50 value, which is the concentration of inhibitor at which 50% of the mature IL-1β is detected in the supernatant as compared to the positive controls.

[6] = biological target: T3, Caspase-7 (Homo sapiens, UniProt P55210); assay: Caspase-7 enzyme assay, cleavage of fluorogenic substrate; format: biochemical; conditions: second order rate constant of enzyme inactivation; substrate Acetyl-Asp-Glu-val-Asp-amino-4-methylcoumarin
T3 sequence (P55210 24-198 limits assumed): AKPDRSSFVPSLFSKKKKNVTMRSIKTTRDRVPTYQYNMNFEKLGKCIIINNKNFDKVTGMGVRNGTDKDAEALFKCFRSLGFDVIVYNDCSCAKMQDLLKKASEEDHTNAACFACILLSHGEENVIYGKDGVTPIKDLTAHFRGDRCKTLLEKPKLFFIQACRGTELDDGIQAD
T3 sequence (P55210 207-303 limits assumed): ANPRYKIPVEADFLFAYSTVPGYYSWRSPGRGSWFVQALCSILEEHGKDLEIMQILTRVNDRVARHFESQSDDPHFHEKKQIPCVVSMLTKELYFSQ
Text: as §1, §2

Chain of Caspase-8 (Q14790 217-374 limits assumed): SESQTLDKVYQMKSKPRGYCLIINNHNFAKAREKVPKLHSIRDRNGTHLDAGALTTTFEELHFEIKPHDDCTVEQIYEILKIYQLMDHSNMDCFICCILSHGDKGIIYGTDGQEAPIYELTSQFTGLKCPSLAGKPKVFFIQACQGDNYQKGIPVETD
Chain of Caspase-8 (Q14790 385-479 limits assumed): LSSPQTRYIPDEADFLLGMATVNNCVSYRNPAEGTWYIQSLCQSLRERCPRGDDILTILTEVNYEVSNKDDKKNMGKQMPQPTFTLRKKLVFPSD

Row | Caspase-8 Kinact [1] [M⁻¹ s⁻¹] | Kinact [2] [M⁻¹ s⁻¹] | Kinact [3] [M⁻¹ s⁻¹] | IC50 [4] [nM] | Caspase-7 Kinact [6] [M⁻¹ s⁻¹] | SMILES | IC50 [5] [nM]
1 | 6750 | 51000 | 36000 | 210 | – | Cc1cccc(=O)n1CC(=O)NC(CC(=O)O)C(=O)CF (stereo not drawn) [Compound 1A-3, 5-Fluoro-3-[2-(6-methyl-2-oxo-2H-pyridin-1-yl)-acetylamino]-4-oxo-pentanoic acid] | –
2 | 13500 | – | 40000 | 650 | – | O=C(O)CC(NC(=O)Cn1ccc(-c2ccccc2)cc1=O)C(=O)CF (stereo not drawn) [Compound 1A-4, 5-Fluoro-3-[2-(4-phenyl-2-oxo-2H-pyridin-1-yl)-acetylamino]-4-oxo-pentanoic acid] | –
3 | 12000 | 24000 | 47000 | 140 | – | C[C@@H](C(=O)NC(CC(=O)O)C(=O)CF)n1c(=O)ccc2ccccc21 (stereo partly drawn) [Compound 1B-1, 5-Fluoro-4-oxo-3-[(S)-2-(2-oxo-2H-quinolin-1-yl)-propionylamino]-pentanoic acid] | –
4 | 27000 | 130000 | 248000 | 60 | 26000 | O=C(O)CC(NC(=O)Cn1ccc2ccccc2c1=O)C(=O)CF (stereo not drawn) [Compound 1C-1, 5-Fluoro-4-oxo-3-[2-(1-oxo-1H-isoquinolin-2-yl)-acetylamino]-pentanoic acid] | 2900
5 | 72500 | 185000 | 419000 | 20 | – | CCC[C@@H](C(=O)NC(CC(=O)O)C(=O)CF)n1cnc2ccccc2c1=O (stereo partly drawn) [Compound 1C-11, 5-Fluoro-4-oxo-3-[(2S)-2-(4-oxo-4H-quinazolin-3-yl)-pentanoylamino]-pentanoic acid] | 400
6 | 77000 | 67000 | 107000 | 20 | – | CC(C)[C@@H](C(=O)NC(CC(=O)O)C(=O)CF)N1Cc2ccccc2N(Cc2cccc(Cl)c2)C1=O (stereo partly drawn) [Compound 1D-1, 5-Fluoro-4-oxo-3-[(2S)-2-[1-(3-chlorobenzyl)-2-oxo-1,4-dihydro-2H-quinazolin-3-yl]-3-methyl-butyrylamino]-pentanoic acid] | –
7 | 13500 | 64000 | 46000 | 70 | – | O=C(O)CC(NC(=O)Cn1cnc2sccc2c1=O)C(=O)CF (stereo not drawn) [Compound 1E-1, 5-Fluoro-4-oxo-3-[2-(4-oxo-4H-thieno[2,3-d]pyrimidin-3-yl)-acetylamino]-pentanoic acid] | 10000
8 | 15500 | 220000 | 115000 | 30 | – | C[C@@H](C(=O)NC(CC(=O)O)C(=O)CF)N1C(=O)c2ccccc2C1=O (stereo partly drawn) [Compound 1F-3, 5-Fluoro-4-oxo-3-[(2S)-2-(1,3-dioxo-1,3-dihydro-isoindol-2-yl)-propionylamino]-pentanoic acid] | 4000
9 | 68500 | 420000 | 307000 | 20 | 147000 | CC[C@@H](C(=O)NC(CC(=O)O)C(=O)CF)n1cnccc1=O (stereo partly drawn) [Compound 1G-1, 5-Fluoro-4-oxo-3-[(2S)-2-(6-oxo-6H-pyrimidin-1-yl)-butyrylamino]-pentanoic acid] | 600

— patent US7517987B2, “Caspase inhibitors and uses thereof” (Vertex Pharmaceutical Incorporated, priority 1999, dated 2009)
